Tests used:
Assay type in all cases: cell-based
EGFR Del (PC9) = molecular target: T1, EGFR Del (PC9) (Homo sapiens, UniProt P00533, DEL746-750); test: EGFR ELISA, PC9 Del cells; details: read-out: EGFR_ELISA9E PC9 Del IC50;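 also: cellular EGFR autophosphorylation at Tyr1068 quantified by sandwich ELISA of cell lysates after 2 h compound exposure at 37 °C, 11-point threefold dilution series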
T1 construct: endogenous in cells; host or cells: PC-9

EGFR L858R, endogenous = molecular target: T2, EGFR L858R, endogenous (Homo sapiens, UniProt P00533, L858R); test: pEGFR Y1068 ELISA assay, NCI-H3255 cells; details: value marked (H3255): NCI-H3255 cells, 2 hrs compound treatment; read-out: pEGFRY1068 ELISA3T3 L858R IC50 (nM), (H3255)
T2 construct: NCI-H3255 (EGFR L858R, endogenous); endogenous in cells; host or cells: NCI-H3255

[1] = molecular target: T3, EGFR L858R+T790M, endogenous (Homo sapiens, UniProt P00533, L858R/T790M); test: pEGFR Y1068 ELISA assay, NCI-H1975 cells; details: value marked (H1975): NCI-H1975 cells, 2 hrs compound treatment; read-out: pEGFRY1068 ELISA3T3T790M—L858R IC50 (nM), (H1975);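 also: sandwich ELISA of endogenous phospho-EGFR (Tyr1068) in lysates of treated cells, 11-point 1:3 serial dilution tested in duplicate per plate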
T3 construct: NCI-H1975 (EGFR L858R+T790M, endogenous); host or cells: NCI-H1975

[2] = molecular target: T4, EGFR wildtype, endogenous (Homo sapiens, UniProt P00533); test: pEGFR Y1068 ELISA assay, A549 cells; details: full serum media, stimulated 10 min with EGF (40 ng/mL), read-out: pEGFRY1068 ELISAA549 IC50;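 also: sandwich ELISA of phospho-EGFR Tyr1068 in cell lysates, cells exposed to compound for 2 h before EGF stimulation, 11-point threefold dilution series run in duplicate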
T4 construct: A549 (EGFR wildtype, endogenous); host or cells: A549

PC9-DRH = test: Cell proliferation assay (CellTiter-Glo), PC9-DRH; details: value marked (PC9-DRH), read-out: 3T3 del_T790M IC50, (PC9-DRH)
Description: (§1) Cell proliferation was measured using the CellTiter-Glo® Luminescent Cell Viability Assay. The assay involves the addition of a single reagent (CellTiter-Glo® Reagent) directly to cells cultured in serum-supplemented medium. The assay uses this one-step addition to induce cell lysis and generate a luminescent signal proportional to the amount of ATP present which is directly proportional to the number of metabolically active cells present in culture. The following cell lines were evaluated in this assay: NIH3T3/EGFR_L858R, NIH3T3/EGFR_E746-A750_deletion, NIH3T3/EGFR L858R+T790M, NIH3T3/EGFR_E746-A750_deletion+T790M, PC-9, PC9-DRH, NCI-H1975, and NCI-H3255. NIH/3T3 parental cells, NCI-H1975, and NCI-H3255 were purchased from the American Type Culture Collection (Manassas, Va.), and PC-9 cells were obtained from Japan. All cells were cultured according to recommendations. NIH/3T3 cells were grown in DMEM (Invitrogen, Carlsbad, Calif.) supplemented with 10% newborn calf serum (Invitrogen), and NIH3T3/EGFR mutant cells were grown in complete media with 5 μg/mL puromycin (Invitrogen). PC-9, NCI-H1975, and NCI-H3255 were grown in RPMI (Invitrogen, Carlsbad, Calif.) supplemented with 10% FBS (Sigma, St Louis, Mo.), and PC9-DRH cells were grown in complete media with 2 uM PF-00299804. Plasmids (pLPCX) with various EGFR constructs were made by GenScript (Piscataway, N.J.), and stable pools of NIH/3T3 cells expressing these constructs were made at Pfizer La Jolla. PC9-DRH cells were generated at Pfizer La Jolla by exposing cells to increasing concentrations of PF-00299804. Cells were plated in complete culture media (3000-5000 cells/well, 50 μl/well) on the bottom of white clear-bottom tissue culture treated microtiter plates (#3610, Corning Inc, Corning, N.Y.) and allowed to adhere overnight at 37° C., 5% CO2. The following day, compound dilution plates were prepared in 96 well clear V-bottom 0.5 mL polypropylene block plates (#3956, Corning, Inc). All cell lines were not evaluated for each compound. Each compound evaluated was prepared as a DMSO stock solution (10 mM). Compounds were tested in duplicate on each plate, with an 11-point serial dilution curve (1:3 dilution). Compound treatment (50 μl) was added from the compound dilution plate to the cell plate. The highest compound concentration was 1 or 10 μM (final), with a 0.3% final DMSO (#D-5879, Sigma, St Louis, Mo.) concentration. Plates were then incubated at 37° C., 5% CO2. After three to five days of compound treatment, CellTiter-Glo® Reagent (#G7573, Promega, Madison, Wis.) was prepared in one of two ways. If thawing a frozen aliquot of CellTiter-Glo® Reagent, the aliquot was thawed and equilibrated to room temperature prior to use while keeping it protected from light. Alternatively, new bottles of CellTiter-Glo® Buffer and CellTiter-Glo® Substrate were thawed and equilibrated to room temperature prior to use. CellTiter-Glo® Buffer (100 mL) was transferred into the amber bottle containing CellTiter-Glo® Substrate to reconstitute the lyophilized enzyme/substrate mixture, forming the CellTiter-Glo® Reagent. The reconstituted reagent was mixed by gently inverting the contents to obtain a homogeneous solution, and went into solution easily in less than one minute. Any unused reconstituted CellTiter-Glo® Reagent was immediately aliquoted and frozen at −20° C., protected from light. Cell plates were equilibrated at room temperature for approximately 30 minutes. An equivolume amount of CellTiter-Glo® Reagent (100 μL) was added to each well. Plates were mixed for two minutes on an orbital shaker to induce cell lysis, and then allowed to incubate at room temperature for 10 minutes to stabilize the luminescent signal. Luminescence was recorded using the PerkinElmer EnVision Excite Multilabel Reader used for endpoint reading for Luminescence detection (Waltham, Mass.). Data were analyzed using a four-parameter fit in Microsoft Excel. […]

NIH3T3/EGFR L858R+T790M = test: Cell proliferation assay (CellTiter-Glo), NIH3T3/EGFR L858R+T790M; details: Mus musculus, NIH3T3, 120 h, 3T3 cell line, three to five days of compound treatment, read-out: 3T3 L858R_T790M IC50
NCI-H3255 = test: Cell proliferation assay (CellTiter-Glo), NCI-H3255; details: Homo sapiens, value marked (H3255), read-out: 3T3 L858R IC50, (H3255)
Description: as §1

PC-9 = test: Cell proliferation assay (CellTiter-Glo), PC-9; details: Homo sapiens, value marked (PC9), read-out: 3T3 del IC50, (PC9)
Description: as §1

EGFR L858R+T790M = EGFR L858R+T790M (Homo sapiens, UniProt P00533, L858R/T790M); test: pEGFR Y1068 ELISA assay, NIH3T3/EGFR_L858R+T790M cells; details: 3T3 cell line, 2 hrs compound treatment; read-out: pEGFRY1068 ELISA3T3T790M—L858R IC50;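 also: sandwich ELISA of EGFR phosphorylated at Tyr1068 in lysates of stably transfected NIH/3T3 cells, 11-point threefold dilution series run in duplicate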
[3] = test system: NIH3T3/EGFR_E746-A750_deletion+T790M; test: Cell proliferation assay (CellTiter-Glo), NIH3T3/EGFR_E746-A750_deletion+T790M; details: Mus musculus, NIH3T3, 120 h, 3T3 cell line, three to five days of compound treatment, read-out: 3T3 del_T790M IC50
Description: as §1

EGFR L858R = EGFR L858R (Homo sapiens, UniProt P00533, L858R); test: pEGFR Y1068 ELISA assay, NIH3T3/EGFR_L858R cells; details: 3T3 cell line, 2 hrs compound treatment; read-out: pEGFRY1068 ELISA3T3 L858R IC50;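 also: sandwich ELISA of phospho-EGFR Tyr1068 in lysates of stably transfected NIH/3T3 pools after 2 h compound exposure at 37 °C, 11-point threefold dilution series run in duplicate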

T1 sequence (P00533 with tags, fused parts or gaps DEL746-750): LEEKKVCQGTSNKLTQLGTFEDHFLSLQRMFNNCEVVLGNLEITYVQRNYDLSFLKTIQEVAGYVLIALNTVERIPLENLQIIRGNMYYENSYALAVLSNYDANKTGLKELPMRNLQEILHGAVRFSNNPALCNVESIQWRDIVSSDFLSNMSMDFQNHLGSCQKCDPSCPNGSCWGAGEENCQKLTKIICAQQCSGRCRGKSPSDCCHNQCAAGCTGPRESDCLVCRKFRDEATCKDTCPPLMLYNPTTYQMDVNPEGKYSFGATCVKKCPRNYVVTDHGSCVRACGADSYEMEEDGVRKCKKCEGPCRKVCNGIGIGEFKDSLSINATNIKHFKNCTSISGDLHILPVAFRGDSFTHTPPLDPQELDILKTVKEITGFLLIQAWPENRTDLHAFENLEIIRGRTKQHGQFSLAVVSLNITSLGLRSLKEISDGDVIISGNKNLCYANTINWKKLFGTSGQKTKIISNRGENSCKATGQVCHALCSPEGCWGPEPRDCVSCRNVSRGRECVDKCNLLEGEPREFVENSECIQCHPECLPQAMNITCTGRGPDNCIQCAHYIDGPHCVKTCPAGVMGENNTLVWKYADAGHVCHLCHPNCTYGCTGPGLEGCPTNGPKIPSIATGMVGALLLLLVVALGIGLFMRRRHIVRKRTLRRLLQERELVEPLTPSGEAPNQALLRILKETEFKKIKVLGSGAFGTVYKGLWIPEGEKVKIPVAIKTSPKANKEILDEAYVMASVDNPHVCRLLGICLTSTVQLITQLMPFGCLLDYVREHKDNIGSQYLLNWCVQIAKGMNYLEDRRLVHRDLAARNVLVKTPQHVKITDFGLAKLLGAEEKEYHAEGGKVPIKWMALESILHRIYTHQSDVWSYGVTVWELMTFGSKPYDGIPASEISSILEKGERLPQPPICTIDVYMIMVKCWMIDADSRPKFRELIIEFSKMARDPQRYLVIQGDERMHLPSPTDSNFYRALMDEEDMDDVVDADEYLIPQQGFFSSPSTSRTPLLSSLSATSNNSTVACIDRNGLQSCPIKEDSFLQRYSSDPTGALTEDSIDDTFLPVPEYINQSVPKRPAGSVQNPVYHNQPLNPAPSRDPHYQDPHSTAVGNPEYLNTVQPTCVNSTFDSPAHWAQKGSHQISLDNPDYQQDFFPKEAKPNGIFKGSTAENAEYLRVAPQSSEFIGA
T3 sequence (P00533 25-1210 T790M/L858R): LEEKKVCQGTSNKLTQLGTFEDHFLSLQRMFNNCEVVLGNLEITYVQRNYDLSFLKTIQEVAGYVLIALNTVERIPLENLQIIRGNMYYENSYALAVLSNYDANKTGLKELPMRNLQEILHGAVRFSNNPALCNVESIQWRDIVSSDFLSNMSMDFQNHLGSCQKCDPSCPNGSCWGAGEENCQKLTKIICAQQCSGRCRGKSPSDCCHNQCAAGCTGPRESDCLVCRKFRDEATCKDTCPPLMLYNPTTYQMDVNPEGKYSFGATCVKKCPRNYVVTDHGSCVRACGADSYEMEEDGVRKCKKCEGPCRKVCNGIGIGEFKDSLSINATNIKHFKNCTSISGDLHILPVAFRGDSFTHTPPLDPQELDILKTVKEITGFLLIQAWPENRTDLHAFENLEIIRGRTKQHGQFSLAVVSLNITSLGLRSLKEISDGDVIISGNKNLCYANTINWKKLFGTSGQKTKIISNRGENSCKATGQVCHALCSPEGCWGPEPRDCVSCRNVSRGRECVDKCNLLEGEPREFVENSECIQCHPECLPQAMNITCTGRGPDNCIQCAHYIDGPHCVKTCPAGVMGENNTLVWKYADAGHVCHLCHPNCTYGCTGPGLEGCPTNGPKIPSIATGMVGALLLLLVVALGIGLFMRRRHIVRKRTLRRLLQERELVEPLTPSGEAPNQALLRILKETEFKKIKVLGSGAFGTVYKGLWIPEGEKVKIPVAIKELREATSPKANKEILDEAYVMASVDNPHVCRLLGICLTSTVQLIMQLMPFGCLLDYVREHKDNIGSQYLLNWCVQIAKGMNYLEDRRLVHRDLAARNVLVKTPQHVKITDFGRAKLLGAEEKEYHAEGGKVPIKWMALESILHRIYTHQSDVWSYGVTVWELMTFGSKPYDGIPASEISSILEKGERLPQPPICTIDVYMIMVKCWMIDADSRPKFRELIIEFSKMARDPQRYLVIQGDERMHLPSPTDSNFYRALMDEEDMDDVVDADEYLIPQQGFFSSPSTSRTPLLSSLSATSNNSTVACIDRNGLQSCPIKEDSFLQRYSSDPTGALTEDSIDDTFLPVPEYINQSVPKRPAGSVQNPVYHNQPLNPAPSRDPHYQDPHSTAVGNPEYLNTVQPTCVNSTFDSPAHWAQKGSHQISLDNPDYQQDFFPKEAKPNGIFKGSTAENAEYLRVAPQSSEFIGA
EGFR L858R+T790M, sequence (P00533 25-1210 T790M/L858R): as above
T4 sequence (P00533 25-1210): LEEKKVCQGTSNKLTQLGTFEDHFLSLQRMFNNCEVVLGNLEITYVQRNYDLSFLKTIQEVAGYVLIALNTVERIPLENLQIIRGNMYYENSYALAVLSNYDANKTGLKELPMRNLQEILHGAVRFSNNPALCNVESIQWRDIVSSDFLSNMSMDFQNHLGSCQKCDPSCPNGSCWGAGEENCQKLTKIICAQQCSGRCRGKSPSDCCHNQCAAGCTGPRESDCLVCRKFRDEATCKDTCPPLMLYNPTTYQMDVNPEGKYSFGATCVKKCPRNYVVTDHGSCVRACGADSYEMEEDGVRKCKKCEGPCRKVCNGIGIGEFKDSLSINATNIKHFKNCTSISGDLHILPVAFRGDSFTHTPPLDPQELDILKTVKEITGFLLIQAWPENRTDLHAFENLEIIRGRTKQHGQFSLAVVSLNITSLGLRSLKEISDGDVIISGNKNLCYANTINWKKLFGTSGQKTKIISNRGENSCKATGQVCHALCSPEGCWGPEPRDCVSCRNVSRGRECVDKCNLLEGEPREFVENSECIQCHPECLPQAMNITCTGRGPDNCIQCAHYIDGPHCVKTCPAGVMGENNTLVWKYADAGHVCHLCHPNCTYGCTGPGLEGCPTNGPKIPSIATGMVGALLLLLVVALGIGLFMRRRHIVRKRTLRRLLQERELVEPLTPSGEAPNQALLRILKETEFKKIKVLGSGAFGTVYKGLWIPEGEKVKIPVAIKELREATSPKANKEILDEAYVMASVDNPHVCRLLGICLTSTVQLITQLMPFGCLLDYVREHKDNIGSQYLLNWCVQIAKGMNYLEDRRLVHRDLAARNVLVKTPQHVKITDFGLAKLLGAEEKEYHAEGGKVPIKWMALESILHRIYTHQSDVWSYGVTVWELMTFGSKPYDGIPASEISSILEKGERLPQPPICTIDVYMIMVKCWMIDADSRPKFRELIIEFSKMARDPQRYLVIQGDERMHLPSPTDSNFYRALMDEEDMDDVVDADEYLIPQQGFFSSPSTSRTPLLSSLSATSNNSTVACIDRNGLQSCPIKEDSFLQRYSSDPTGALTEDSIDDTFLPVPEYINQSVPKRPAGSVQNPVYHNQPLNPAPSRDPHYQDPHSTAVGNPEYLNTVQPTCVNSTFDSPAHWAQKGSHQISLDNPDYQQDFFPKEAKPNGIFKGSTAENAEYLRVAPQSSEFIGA

Structure (SMILES)	IC50 (EGFR Del (PC9)) [nM]	IC50 (EGFR L858R, endogenous) [nM]	IC50 [1] [nM]	IC50 [2] [nM]	IC50 (PC9-DRH) [nM]	IC50 (NIH3T3/EGFR L858R+T790M) [nM]	IC50 (NCI-H3255) [nM]	IC50 (PC-9) [nM]	IC50 (EGFR L858R+T790M) [nM]	IC50 [3] [nM]	IC50 (EGFR L858R) [nM]
C=CC(=O)N1C[C@@H]2CN(c3nc(Nc4cnn(C)c4)nc4[nH]cc(Cl)c34)C[C@]2(OC)C1 (single isomer, unassigned) [Example 88]	630	41	34								
C=CC(=O)N1C[C@H](COc2nc(Nc3cnn(CC(C)O)c3)nc3[nH]cc(Cl)c23)[C@@H](OC)C1 (single isomer, unassigned) [Example 100]	4250	101	153	> 10000							
C=CC(=O)N1CCOC2(CCN(c3nc(Nc4cnn(C)c4)nc4[nH]cc(Cl)c34)C2)C1 (single isomer, unassigned) [Example 112]		241	63	> 10000							
C=CC(=O)N[C@H]1C[C@H](Oc2nc(Nc3cnn(C)c3)nc3[nH]cc(-c4ccccn4)c23)C1 [Example 12, N-[trans-3-({2-[(1-methyl-1H-pyrazol-4-yl)amino]-5-(pyridin-2-yl)-7H-pyrrolo[2,3-d]pyrimidin-4-yl}oxy)cyclobutyl]prop-2-enamide]	2780	782	689	> 10000							
C=CC(=O)N(C)[C@H]1C[C@H](Oc2nc(Nc3cnn(C)c3)nc3[nH]cc(-c4cccnc4)c23)C1 [Example 13, N-methyl-N-[trans-3-({2-[(1-methyl-1H-pyrazol-4-yl)amino]-5-(pyridin-3-yl)-7H-pyrrolo[2,3-d]pyrimidin-4-yl}oxy)cyclobutyl]prop-2-enamide]	91	48	89		100 to 1000	100 to 1000	100 to 1000	100 to 1000			
C=CC(=O)N1CC(Nc2nc(Nc3cnn(C)c3)nc3[nH]cc(Cl)c23)C1 [Example 79]	> 6760	776	136	> 10000							
C=CC(=O)N(C)[C@H]1C[C@H](Oc2nc(Nc3cn(C)nc3C#N)nc3[nH]cc(Cl)c23)C1 [Example 80]	891	273	25	> 10000							
C=CC(=O)N1C[C@H](Nc2nc(Nc3cnn(C)c3)nc3[nH]cc(Cl)c23)[C@H](n2ccnn2)C1 [Example 82]	> 10000	973	638	> 10000							
C=CC(=O)N1C[C@@H]2CN(c3nc(Nc4cnn(C)c4)nc4[nH]cc(Cl)c34)C[C@]2(O)C1 [Example 84]	5240	1100	175								
C=CC(=O)N1C[C@H](Nc2nc(Nc3cnn(C)c3)nc3[nH]cc(Cl)c23)[C@@H](C(F)F)C1 [Example 85]	154	61			100 to 1000	10 to 100	10 to 100	> 1000	191		
C=CC(=O)N(C)[C@H]1C[C@H](Oc2nc(Nc3cnn(C)c3)nc3[nH]cc(-c4ccn(C)n4)c23)C1 [Example 86]	2340	477	266	> 10000							
C=CC(=O)N(C)[C@H]1C[C@H](Oc2nc(Nc3cnn(C)c3)nc3[nH]cc(-c4ccccn4)c23)C1 [Example 89]	42	33	6	1650		10 to 100	100 to 1000	100 to 1000		10 to 100	
C=CC(=O)N1C[C@H](COc2nc(Nc3cnn(C)c3)nc3[nH]cc(Cl)c23)[C@@H](F)C1 [Example 90]							10 to 100				
C=CC(=O)N1C[C@H](COc2nc(Nc3cnn(CC#N)c3)nc3[nH]cc(Cl)c23)[C@@H](OC)C1 [Example 93]	383	26	31								
C=CC(=O)N(C)[C@@H]1CCCN(c2nc(Nc3cnn(C)c3)nc3[nH]cc(Cl)c23)C1 [Example 94]	4430	608	385								
C=CC(=O)N(C)[C@H]1C[C@H](Oc2nc(Nc3cnn(C)c3)nc3[nH]cc(-c4cnn(C)c4)c23)C1 [Example 95]	8570	2440	1570	> 10000							
C=CC(=O)N(C)[C@H]1C[C@H](Nc2nc(Nc3cn(C)nc3C)nc3[nH]cc(Cl)c23)C1 [Example 98]	472	139		4290	10 to 100	10 to 100	10 to 100	100 to 1000	27		
C=CC(=O)N1C[C@@H]2CN(c3nc(Nc4cn(C)nc4OC)nc4[nH]cc(Cl)c34)C[C@@H]2C1 [Example 99]	812			3440	100 to 1000	100 to 1000	> 1000	> 1000	377		482
C=CC(=O)N[C@]1(C)C[C@@H](Oc2nc(Nc3cnn(C)c3)nc3[nH]cc(Cl)c23)C1 [Example 113]	> 10000	> 8580	457	> 10000							
C=CC(=O)N1C[C@H](COc2nc(Nc3cn(CC#N)nc3C)nc3[nH]cc(Cl)c23)[C@@H](OC)C1 [Example 115]	953	85	73	> 10000							
C=CC(=O)N(C)[C@H]1C[C@H](Oc2nc(Nc3cnn(CC#N)c3)nc3[nH]cc(Cl)c23)C1 [Example 116]	328	107	24			10 to 100					

Reference: patent US9040547B2, “Pyrrolopyrimidine and purine derivatives” (PFIZER INC., priority 2011, dated 2015)
